According to US20230015541A1, “16% Sodium Citrate Solution for Use as an Antimicrobial Catheter Lock Solution” (Becton, Dickinson and Company, priority 2021, published 2023):

Assays:
Gram-negative bacteria = test: MIC determination of sodium citrate by broth microdilution; format: cell-based; settings: 16% w/v sodium citrate, pH 6.4-7.5; concluded from MICs of FIGS. 2A and 2B
Description: (§1) In vitro testing was conducted with sodium citrate on samples of various microorganisms to determine a minimum inhibitory concentration (MIC) of sodium citrate (at pH 6.4-7.5) for those microorganisms. […] Testing was performed as set forth in ‘Methods for Dilution Antimicrobial Susceptibility Tests for Bacteria That Grow Aerobically,’ 11th Edition, Clinical and Laboratory Standards Institute (2018), ‘Methods for Determining Bactericidal Activity of Antimicrobial Agents' Approved Guideline.’ Vol. 12, No. 9, Clinical and Laboratory Standards Institute (1999), and ‘Development of In Vitro Susceptibility Testing Criteria and Quality Control Parameters; Approved Guideline-Second Edition,’ Vol. 21, No. 7, Clinical and Laboratory Standards Institute (2001).
(§2) For MIC determinations, sodium citrate was reconstituted and diluted to various working stock concentrations (8%, 10%, 12%, 14%, 16%, 20%, 24%, and 28% in deionized water and transferred into round-bottom 96-well microdilution plates. Three strains each of Gram-positive bacteria, Gram-negative bacteria, and yeast were obtained from the American Tissue Type Collection (ATCC) or the Centers for Disease Control Antibiotic Resistant (CDC AR) Isolate Bank. Cultures were grown on Trypticase Soy Agar (TSA, for bacteria) or Sabouraud Dextrose Agar (SDA, for yeast) and suspended in Mueller Hinton Broth to a final cell density of approximately 5×10^5 CFU/mL during exposure to sodium citrate. Following incubation at 35±2° C. for 24±2 h (bacteria) or 44±4 h (yeast), microdilution plates were visually examined for the presence or inhibition of growth.
(§3) As will be appreciated, the MIC is shown, thus testing of higher concentrations was deemed unnecessary, because if, for example 4% sodium citrate is the MIC for a given microorganism, then 16% would be at least as effective. Three (3) replicates were run for each bacteria evaluated and four (4) replicates were run for each fungi evaluated, using two (2) different growth media for the fungi. […]

Gram-positive bacteria = test: as above; format: cell-based; settings: 16% w/v sodium citrate, pH 6.4-7.5; concluded from MICs of FIGS. 2A and 2B
Description: as §1, §2, §3

yeast = test: as above; format: cell-based; settings: 16% w/v sodium citrate, pH 6.4-7.5; concluded from MICs of FIGS. 2A and 2B
Description: as §1, §2, §3

[1] = system: S. aureus (Gram-positive bacteria); test: Growth inhibition timeframe at various concentrations of sodium citrate; format: cell-based, Staphylococcus aureus; settings: through 24 hours; for growth of S. aureus: pH 6.4-7.5
Description: FIG. 3 is a table showing growth inhibition timeframe of Gram-positive Staphylococcus aureus exposed to various concentrations of sodium citrate.
(§4) In vitro testing was conducted with various concentrations of sodium citrate on S. aureus (Gram-positive bacteria) (FIG. 3), P. aeruginosa (Gram-negative bacteria) (FIG. 4), and yeast, C. albicans (FIG. 5). Testing was conducted as set forth in ‘Methods for Dilution Antimicrobial Susceptibility Tests for Bacteria That Grow Aerobically,’ 11th Edition, Clinical and Laboratory Standards Institute (2018), ‘Methods for Determining Bactericidal Activity of Antimicrobial Agents' Approved Guideline.’ Vol. 12, No. 9, Clinical and Laboratory Standards Institute (1999), and ‘Development of In Vitro Susceptibility Testing Criteria and Quality Control Parameters; Approved Guideline-Second Edition,’ Vol. 21, No. 7, Clinical and Laboratory Standards Institute (2001). Briefly, trisodium citrate salt was compounded using purified water and the pH was adjusted, if necessary, with hydrochloric acid to provide a composition with a pH between 6.4 and 7.5. […] Due to this, it is expected that growth inhibition and possibly eradication can occur beyond 24 hours.

[2] = system: P. aeruginosa (Gram-negative bacteria); test: as above; format: cell-based, Pseudomonas aeruginosa; settings: through 24 hours; for growth of P. aeruginosa: pH 6.4-7.5
Description: FIG. 4 is a table showing growth inhibition timeframe of Gram-negative Pseudomonas aeruginosa exposed to various concentrations of sodium citrate.
as §4
Due to this, it is expected that growth inhibition and possibly eradication can occur beyond 24 hours.

yeast, C. albicans = test: as above; format: cell-based, Candida albicans; settings: through 24 hours, pH 6.4-7.5
Description: FIG. 5 is a table showing growth inhibition timeframe of the fungus Candida albicans exposed to various concentrations of sodium citrate.
as §4

whole human blood = test: Anticoagulation effect in vitro as activated clotting time (ACT), Sonoclot analyzer; format: cell-based; settings: 4% (w/v), versus controls (no solution and saline)
Description: The anticoagulation effect of a 4% sodium citrate lock solution was measured in vitro as activated clotting time (ACT) using whole human blood over 2 years. The anticoagulation effectiveness of 4% sodium citrate lock solution on whole blood was determined using the Sonoclot® Coagulation & Platelet Function Analyzer (Sienco Inc., Boulder Colo.), which can calculate the onset of clot formation by monitoring mechanical changes that occur in blood samples during hemostasis. The mechanism is a tubular probe that moves up and down within a blood sample. As the sample progresses through various stages of clotting, electronic circuitry (a transducer) detects increasing resistance. This produces a series of electronic signals that are processed by a microcomputer. The output is the total time of clot formation where the blood is more viscous than initially introduced.

Q: `O=C([O-])CC(O)(CC(=O)[O-])C(=O)[O-].[Na+].[Na+].[Na+]` [sodium citrate, trisodium citrate] was tested. Which “growth and proliferation of Gram-negative bacteria” value (Gram-negative bacteria) did it give?
A: Its value is “will prevent growth and proliferation”.

Q: And the “growth and proliferation of Gram-positive bacteria” value (Gram-positive bacteria)?
A: Its value is “will prevent growth and proliferation”.

Q: What about the “growth and proliferation of yeast” value (yeast) of the same compound?
A: The value was “will prevent growth and proliferation”.

Q: What about the “bacteria count of S. aureus” value ([1]; 6% (w/v)) of the same compound?
A: Its value is “decrease”.

Q: What about the “growth of S. aureus” value ([1]; 6% (w/v)) of the same compound?
A: The value was “does not grow”.

Q: And the “bacteria count of S. aureus” value ([1]; 8% (w/v))?
A: Its value is “decrease”.

Q: And the “growth of S. aureus” value ([1]; 8% (w/v))?
A: Its value is “does not grow”.

Q: And the “bacteria count of S. aureus” value ([1]; 10% (w/v))?
A: The value was “decrease”.

Q: What about the “growth of S. aureus” value ([1]; 10% (w/v)) of the same compound?
A: The value was “does not grow”.

Q: And the “bacteria count of P. aeruginosa” value ([2]; 10% (w/v))?
A: The value was “decrease”.

Q: And the “growth of P. aeruginosa” value ([2]; 10% (w/v))?
A: The value was “does not grow”.

Q: What about the “bacteria count of P. aeruginosa” value ([2]; 12% (w/v)) of the same compound?
A: Its value is “decrease”.

Q: And the “growth of P. aeruginosa” value ([2]; 12% (w/v))?
A: The value was “does not grow”.

Q: And the “bacteria count of P. aeruginosa” value ([2]; 14% (w/v))?
A: The value was “decrease”.

Q: What about the “growth of P. aeruginosa” value ([2]; 14% (w/v)) of the same compound?
A: Its value is “does not grow”.

Q: And the “growth of C. albicans” value (yeast, C. albicans; 2% (w/v))?
A: Its value is “does not grow”.

Q: What about the “growth of C. albicans” value (yeast, C. albicans; 4% (w/v)) of the same compound?
A: Its value is “does not grow”.

Q: What about the “growth of C. albicans” value (yeast, C. albicans; 6% (w/v)) of the same compound?
A: The value was “does not grow”.

Q: What about the “time required for clot formation (activated clotting time)” value (whole human blood) of the same compound?
A: The value was “longer relative to the controls”.
